Reference: patent US9353120B2, “Tetraaza macrocyclic compound, preparation method thereof and use thereof” (Kyungpook National University Industry-Academic Cooperation …, priority 2009, dated 2016)
“Also recorded” adds a separate entry of the source. Where two headings read alike, the source gives them in different places.

Tests used:
[1] = Electrochemical studies (cyclic voltammetry); format: physicochemical; conditions: pH 7.0, scan rate 100 mV/s; for reversibility of redox reaction: cyclic voltammogram
Method: Cyclic voltammetry was conducted using Biologic model SP-150 with three-electrode configuration. The system consisted of a glassy carbon (diameter=3 mm) as a working electrode, an Ag/AgCl (sat. KCl) reference electrode, and a Pt wire counter electrode. Samples were run in 0.1 M aqueous […] adjusted to pH 7.0 with glacial […] at scan rate 100 mV/s. The solutions were deoxygenated for 30 minutes with argon (Ar) prior to use and kept under Ar atmosphere during measurement.

[2] = in vivo
Method: (§1) The animals were sacrificed at 4 hours and 24 hours post-injection. Organs and tissues of interest were removed and weighed.

[3] = Rat biodistribution of 64Cu complexes
Method: as §1

[4] = Kinetic inertness via acid decomplexation (radio-TLC); format: physicochemical; conditions: 5 M and 10 M HCl, 90° C., radio-TLC at 6, 30 and 60 minutes
Method: Acid decomplexation of ^64Cu-PCB-TE2A was tested by adding 20 μL of ^64Cu-PCB-TE2A (1-2 mM, 52 μCi) to 100 μL of 5 M and 10 M HCl. The solution was heated at 90° C., and samples were analyzed by radio-TLC at 6, 30 and 60 minutes post-addition to 5 M and 10 M HCl (FIGS. 10-15).

In vitro serum stability = format: in vitro ADME, bovine; conditions: FBS, 37° C., radio-TLC up to 24 hours, then 50° C. for 1 hour
Method: In vitro serum stability of ^64Cu-PCB-TE2A was tested by adding 20 μL of ^64Cu-PCB-TE2A (1-2 mM, 50 μCi) to 0.5 mL of fetal bovine serum (FBS). The solution was incubated at 37° C., and samples were analyzed by radio-TLC at 10, 30 and 60 minutes and at 2, 4, 10 and 24 hours post-addition to FBS (FIGS. 16-22). After 24 hours, the solution was incubated at 50° C. for 1 hour and once again samples were analyzed by radio-TLC (FIG. 23).

in vivo = conditions: female, nude, mouse, iv, 16 uCi, total radioactivity, mean uptake in the tumor
[5] = buffer
Method: Acid decomplexation studies were performed under pseudo first-order conditions with the same concentration of 3 mmol in 5 M HCl at 90° C. Changes in the absorption maxima with time were monitored using a Shimadzu UV-Vis spectrophotometer (UV-1650PC) in thermostated cells. The decreasing absorbance at the λmax of each spectrum (Cu-PCB-TE2A: 655 nm, Cu-PCB-DO2A: 596 nm) was used to monitor the progress of the decomplexation reaction (FIGS. 24-25). Half-lives were calculated from the slopes of linear ln(absorbance) vs. time plots. Each experiment was repeated two to three times and mean values of half-lives are reported.

U87MG tumors = assay: MicroPET imaging; format: in vivo, female nude mice; conditions: U87MG tumor bearing nude mouse, 1 hour post-injection, 231 μCi
Method: PET scans and image analysis were performed using a microPET R4 rodent model scanner. […] At 1 hour after the injection, the mice were anesthetized with 1-2% isoflurane, positioned porne, and imaged. The images were reconstructed by the 2-dimensional ordered-subsets expectation maximum (OSEM) algorithm. No correction was necessary for attenuation or scatter correction.

[6] = Kidney, 24 hours post-injection
[7] = Muscle, 24 hours post-injection
[8] = Spleen, 24 hours post-injection

Molecule: O=C([O-])CN1CCN2CCCN(CC1)CCN(CC(=O)[O-])CC2.[Cu+2] [Cu-PCB-DO2A]
- reversibility of redox reaction [1]: irreversible redox reaction
- reversibility of redox reaction ([1]; listed as CU-PCB-DO2A): irrev
- Ered(V) vs Ag/AgCl (reduction potential) [1]: −0.69 V

Molecule: O=C(O)CN1CCCN2CCCN(CCCN(CC(=O)O)CC2)CC1 [PCB-TE2A, 4,11-bis(carboxymethyl)-1,4,8,11-tetraazabicyclo[6.6.3]heptadecane]
- Blood (rat biodistribution, cross-bridged and non-cross-bridged chelators) ([2]; Sprague-Dawley, 24 h): 0.012±0.004 % ID/organ
- Kidney (rat biodistribution, cross-bridged and non-cross-bridged chelators) ([2]; Sprague-Dawley, 24 h): 0.064±0.009 % ID/organ
- Liver (rat biodistribution, cross-bridged and non-cross-bridged chelators) ([2]; Sprague-Dawley, 24 h): 0.142±0.004 % ID/organ

Molecule: O=C([O-])CN1CCN2CCCN(CC1)CCN(CC(=O)[O-])CC2.[64Cu+2] [^64Cu-PCB-DO2A]
- clearance from the blood, liver and kidneys ([2]; rat): quickly cleared

Molecule: O=C([O-])CN1CCCN2CCCN(CCCN(CC(=O)[O-])CC2)CC1.[64Cu+2] [^64Cu-PCB-TE2A]
- % ID/g ([3]; Blood, 4 hours post-injection): 0.013 ± 0.003 % ID/g
- % ID/organ ([3]; Blood, 4 hours post-injection): 0.192 ± 0.048 % ID/organ
- % ID/g ([3]; Blood, 24 hours post-injection): 0.006 ± 0.001 % ID/g
- % ID/organ ([3]; Blood, 24 hours post-injection): 0.108 ± 0.029 % ID/organ
- % ID/g ([3]; Bone, 4 hours post-injection): 0.030 ± 0.004 % ID/g
- % ID/organ ([3]; Bone, 4 hours post-injection): 0.656 ± 0.110 % ID/organ
- % ID/g ([3]; Bone, 24 hours post-injection): 0.020 ± 0.005 % ID/g
- % ID/organ ([3]; Bone, 24 hours post-injection): 0.569 ± 0.181 % ID/organ
- % ID/g ([3]; Fat, 4 hours post-injection): 0.060 ± 0.013 % ID/g
- % ID/organ ([3]; Fat, 4 hours post-injection): 1.686 ± 0.322 % ID/organ
- % ID/g ([3]; Fat, 24 hours post-injection): 0.036 ± 0.005 % ID/g
- % ID/organ ([3]; Fat, 24 hours post-injection): 1.328 ± 0.311 % ID/organ
- % ID/g ([3]; Heart, 4 hours post-injection): 0.015 ± 0.001 % ID/g
- % ID/organ ([3]; Heart, 4 hours post-injection): 0.011 ± 0.000 % ID/organ
- % ID/g ([3]; Heart, 24 hours post-injection): 0.007 ± 0.002 % ID/g
- % ID/organ ([3]; Heart, 24 hours post-injection): 0.006 ± 0.001 % ID/organ
- % ID/g ([3]; Kidney, 4 hours post-injection): 0.421 ± 0.019 % ID/g
- % ID/organ ([3]; Kidney, 4 hours post-injection): 0.794 ± 0.056 % ID/organ
- % ID/g [3, 6]: 0.049 ± 0.007 % ID/g
- % ID/organ [3, 6]: 0.112 ± 0.011 % ID/organ
- % ID/g ([3]; Liver, 4 hours post-injection): 0.213 ± 0.032 % ID/g
- % ID/organ ([3]; Liver, 4 hours post-injection): 1.679 ± 0.241 % ID/organ
- % ID/g ([3]; Liver, 24 hours post-injection): 0.015 ± 0.001 % ID/g
- % ID/organ ([3]; Liver, 24 hours post-injection): 0.122 ± 0.013 % ID/organ
- % ID/g ([3]; Lungs, 4 hours post-injection): 0.022 ± 0.003 % ID/g
- % ID/organ ([3]; Lungs, 4 hours post-injection): 0.022 ± 0.003 % ID/organ
- % ID/g ([3]; Lungs, 24 hours post-injection): 0.013 ± 0.002 % ID/g
- % ID/organ ([3]; Lungs, 24 hours post-injection): 0.015 ± 0.003 % ID/organ
- % ID/g ([3]; Muscle, 4 hours post-injection): 0.033 ± 0.006 % ID/g
- % ID/organ ([3]; Muscle, 4 hours post-injection): 2.743 ± 0.525 % ID/organ
- % ID/g [3, 7]: 0.018 ± 0.006 % ID/g
- % ID/organ [3, 7]: 1.987 ± 0.703 % ID/organ
- % ID/g ([3]; Spleen, 4 hours post-injection): 0.025 ± 0.006 % ID/g
- % ID/organ ([3]; Spleen, 4 hours post-injection): 0.013 ± 0.004 % ID/organ
- % ID/g [3, 8]: 0.015 ± 0.009 % ID/g
- % ID/organ [3, 8]: 0.009 ± 0.004 % ID/organ
- % ID/g ([3]; Tail, 4 hours post-injection): 0.046 ± 0.039 % ID/g
- % ID/organ ([3]; Tail, 4 hours post-injection): 0.252 ± 0.213 % ID/organ
- % ID/g ([3]; Tail, 24 hours post-injection): 0.039 ± 0.014 % ID/g
- % ID/organ ([3]; Tail, 24 hours post-injection): 0.276 ± 0.115 % ID/organ
- clearance from the blood, liver and kidneys ([3]; words): lowest amount of ^64Cu remaining in the blood and these tissues
- kinetic inertness towards acid decomplexation [4]: unusually high kinetic inertness towards acid decomplexation
- in vitro serum stability (In vitro serum stability): intact in the FBS for 24 hours without degradation

Molecule: N=C(N)NCCC[C@@H]1NC(=O)[C@H](CCCCNC(=S)Nc2ccc(CC3CN4CCCN(CC(=O)O)CCN(CCCN(CC(=O)O)CC4)C3)cc2)NC(=O)[C@@H](Cc2ccc(O)cc2)NC(=O)[C@H](CC(=O)O)NC(=O)CNC1=O (stereo partly shown) [metal not drawn]
- tissue uptake at 1 h (in vivo): 4.76 %ID/g

Molecule: Cu-PCB-TE2A
- Half-life for acid decomplexation, 5M HCl, 90° C. [5]: 231(2)h
- reversibility of redox reaction [1]: quasi-reversible redox reaction; also recorded: qitasi-rev
- Ered(V) vs Ag/AgCl (reduction potential) [1]: −0.66 V

Molecule: ^64Cu-PCB-TE2A-c(RGDyK)
- radiation uptake in the tumors (microPET) (U87MG tumors): very high in the tumors as compared to other organs
